Data from patent US10023590B2, “Substituted pyridine compounds having herbicidal activity” (BASF SE, priority 2014, dated 2018).
Where two headings read alike, the source gives them in different places.

Experiments:
Assay type in all cases: in vivo
[1] = tested on: Zea mays; assay: Greenhouse post-emergence herbicidal activity on crop ZEAMX (corn, maize); set-up: key: 0 = no damage/normal growth, 100 = no emergence or complete destruction; settings: ZEAMX (corn, crop), scale 0 to 100
Summary of the method: (§1)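 Post-emergence greenhouse test: plants in loamy sand (~3.0% humus) grown to 3-15 cm, then treated with active ingredient suspended or emulsified in water. Kept at 10-25° C or 20-35° C depending on species for 2 to 4 weeks; damage scored 0 (none) to 100 (complete destruction of aerial parts).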

[2] = tested on: Chenopodium album; assay: Greenhouse post-emergence herbicidal activity, CHEAL; settings: scale 0 to 100; for pest or weed control at 125 g/ha: 0.125 kg/ha
Summary of the method: as §1

[3] = tested on: Amaranthus retroflexus; assay: Greenhouse post-emergence herbicidal activity, AMARE; settings: for pest or weed control at 125 g/ha: 0.125 kg/ha
Summary of the method: as §1

[4] = tested on: Echinocloa crus-galli; assay: Greenhouse post-emergence herbicidal activity, ECHCG; settings: Echinochloa crus-galli
Summary of the method: as §1

[5] = tested on: Abutilon theophrasti; assay: Greenhouse post-emergence herbicidal activity, ABUTH
Excerpt: (§2) The culture containers used were plastic flowerpots containing loamy sand with approximately 3.0% of humus as the substrate. The seeds of the test plants were sown separately for each species.
(§3) For the post-emergence treatment, the test plants were first grown to a height of 3 to 15 cm, depending on the plant habit, and only then treated with the active ingredients which had been suspended or emulsified in water. For this purpose, the test plants were either sown directly and grown in the same containers, or they were first grown separately as seedlings and transplanted into the test containers a few days prior to treatment.
(§4) Depending on the species, the plants were kept at 10-25° C. or 20-35° C., respectively.
(§5) The test period extended over 2 to 4 weeks. During this time, the plants were tended, and their response to the individual treatments was evaluated.
(§6) Evaluation was carried out using a scale from 0 to 100. 100 means no emergence of the plants, or complete destruction of at least the aerial moieties, and 0 means no damage, or normal course of growth. A good herbicidal activity is given at values of at least 70 and a very good herbicidal activity is given at values of at least 85.

[6] = tested on: Brachiaria plantaginea; assay: Greenhouse post-emergence herbicidal activity, BRAPL; settings: scale 0 to 100
Excerpt: as §2, §3, §4, §5, §6

[7] = tested on: Oryza sativa; assay: Greenhouse post-emergence herbicidal activity on crop ORYSA (rice); settings: ORYSA (rice, crop), scale 0 to 100
Summary of the method: as §1

[8] = tested on: Eriochloa villosa; assay: Greenhouse post-emergence herbicidal activity, ERBVI; settings: scale 0 to 100
Excerpt: as §2, §3, §4, §5, §6

[9] = tested on: Veronica arvensis; assay: Greenhouse post-emergence herbicidal activity, VERAR; settings: 0.031 kg/ha, scale 0 to 100
Excerpt: as §2, §3, §4, §5, §6

[10] = tested on: Kochia scoparia; assay: Greenhouse post-emergence herbicidal activity, KCHSC; settings: scale 0 to 100
Excerpt: as §2, §3, §4, §5, §6

[11] = tested on: Stellaria media; assay: Greenhouse post-emergence herbicidal activity, STEME; settings: scale 0 to 100
Excerpt: as §2, §3, §4, §5, §6

[12] = tested on: Capsella bursa-pastoris; assay: Greenhouse post-emergence herbicidal activity, CAPBP; settings: 0.125 kg/ha, scale 0 to 100
Excerpt: as §2, §3, §4, §5, §6

[13] = tested on: Polygonum persicaria; assay: Greenhouse post-emergence herbicidal activity, POLPE; settings: scale 0 to 100
Excerpt: as §2, §3, §4, §5, §6

[14] = tested on: Brachiaria decumbens; assay: Greenhouse post-emergence herbicidal activity, BRADC; settings: 0.125 kg/ha, scale 0 to 100
Excerpt: as §2, §3, §4, §5, §6

[15] = tested on: Cirsium arvense; assay: Greenhouse post-emergence herbicidal activity, CIRAR; settings: read-out: Herbicidal activity
Excerpt: as §2, §3, §4, §5, §6

Structure (SMILES): Cc1c(C2=C(O)c3ncccc3CS2(=O)=O)ccc(Cl)c1N(C)S(C)(=O)=O [I-26, N-[6-chloro-3-(8-hydroxy-6,6-dioxo-5H-thiopyrano[4,3-b]pyridin-7-yl)-2-methyl-phenyl]-N-methyl-methanesulfonamide]
- Herbicidal activity ([1]; 0.063 kg/ha): 15
- Herbicidal activity ([1]; 0.125 kg/ha): 15
- pest or weed control at 125 g/ha [2]: 98%
- pest or weed control at 63 g/ha ([3]; AMARE, 0.063 kg/ha, scale 0 to 100): 85%
- pest or weed control at 125 g/ha ([3]; AMARE, scale 0 to 100): 90%
- pest or weed control at 2000 g/ha ([3]; AMARE, 2 kg/ha, scale 0 to 100, read-out: Herbicidal activity): 100%
- pest or weed control at 2000 g/ha ([4]; ECHCG, 2 kg/ha, scale 0 to 100, read-out: Herbicidal activity): 100%
- pest or weed control at 2000 g/ha ([5]; ABUTH, 2 kg/ha, scale 0 to 100, read-out: Herbicidal activity): 100%
- Herbicidal activity ([6]; 0.031 kg/ha): 90
- Herbicidal activity ([6]; 0.063 kg/ha): 90
- Herbicidal activity ([7]; 0.125 kg/ha): 45
- Herbicidal activity ([8]; 0.031 kg/ha): 90
- Herbicidal activity ([8]; 0.063 kg/ha): 95
- Herbicidal activity ([8]; 0.125 kg/ha): 95
- Herbicidal activity [9]: 90

Structure (SMILES): CN(c1c(Cl)ccc(C2=C(O)c3ncccc3C(C)(C)S2(=O)=O)c1Cl)S(C)(=O)=O [I-2, N-[2,6-dichloro-3-(8-hydroxy-5,5-dimethyl-6,6-dioxo-thiopyrano[4,3-b]pyridin-7-yl)phenyl]-N-methyl-methanesulfonamide]
- Herbicidal activity ([10]; 0.031 kg/ha): 95
- Herbicidal activity ([10]; 0.063 kg/ha): 98
- Herbicidal activity ([10]; 0.125 kg/ha): 100
- Herbicidal activity ([11]; 0.031 kg/ha): 100
- Herbicidal activity ([11]; 0.063 kg/ha): 100
- Herbicidal activity [12]: 100
- Herbicidal activity ([1]; 0.063 kg/ha): 5
- pest or weed control at 2000 g/ha ([3]; read-out: Herbicidal activity): 100%
- pest or weed control at 2000 g/ha ([4]; read-out: Herbicidal activity): 100%
- pest or weed control at 2000 g/ha ([5]; read-out: Herbicidal activity): 100%
- Herbicidal activity ([13]; 0.031 kg/ha): 98
- Herbicidal activity [14]: 100
- pest or weed control at 63 g/ha [15]: 98%

Structure (SMILES): CN(c1ccc(Cl)c(C2=C(O)c3ncccc3C(C)(C)S2(=O)=O)c1Cl)S(C)(=O)=O [I-7, N-[2,4-dichloro-3-(8-hydroxy-5,5-dimethyl-6,6-dioxo-thiopyrano[4,3-b]pyridin-7-yl)phenyl]-N-methyl-methanesulfonamide]
- Herbicidal activity ([11]; 0.063 kg/ha): 100
- Herbicidal activity ([11]; 0.125 kg/ha): 100
- Herbicidal activity ([11]; 0.25 kg/ha): 100
- Herbicidal activity ([1]; 0.031 kg/ha): 0
- Herbicidal activity ([1]; 0.063 kg/ha): 0
- Herbicidal activity ([1]; 0.125 kg/ha): 20
- pest or weed control at 31 g/ha ([2]; 0.031 kg/ha): 95%
- pest or weed control at 63 g/ha ([2]; 0.063 kg/ha): 85%
- pest or weed control at 125 g/ha [2]: 98%
- pest or weed control at 250 g/ha ([2]; 0.25 kg/ha): 100%
- pest or weed control at 125 g/ha ([3]; AMARE, scale 0 to 100): 90%
- pest or weed control at 250 g/ha ([5]; ABUTH, 0.25 kg/ha, scale 0 to 100): 100%
- Herbicidal activity ([13]; 0.063 kg/ha): 80
- Herbicidal activity ([7]; 0.031 kg/ha): 0
- Herbicidal activity ([7]; 0.063 kg/ha): 0
- Herbicidal activity ([7]; 0.125 kg/ha): 10
- Herbicidal activity ([7]; 0.25 kg/ha): 15
